Reference: PubChem BioAssay (NCI)
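Results reflect a 48-hour exposure of cells in 96-well plates to compound at five concentrations. The concentration for full growth arrest is given as TGI.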

How the values were obtained:
Experiment in all cases: NCI-60 cell line screen, 48 h
DLD-1 colon = tested on: DLD-1 colon
DMS 114 small cell lung = tested on: DMS 114 small cell lung
DMS 273 small cell lung = tested on: DMS 273 small cell lung
HOP-18 NSCLC = tested on: HOP-18 NSCLC
KM20L2 colon = tested on: KM20L2 colon
M19-MEL melanoma = tested on: M19-MEL melanoma
RXF 393 renal = tested on: RXF 393 renal
SK-MEL-5 melanoma = tested on: SK-MEL-5 melanoma
SNB-78 CNS = tested on: SNB-78 CNS
LXFL 529 NSCLC = tested on: LXFL 529 NSCLC
XF 498 CNS = tested on: XF 498 CNS
RXF-631 renal = tested on: RXF-631 renal

SMILES: Cc1ccc(/C=C/C(=O)c2sc(-n3nc(-c4ccccc4)cc3-c3ccccc3)nc2C)cc1
- TGI (DLD-1 colon): > 100 µM
- TGI (DMS 114 small cell lung): > 100 µM
- TGI (DMS 273 small cell lung): > 100 µM
- TGI (HOP-18 NSCLC): > 100 µM
- TGI (KM20L2 colon): > 100 µM
- TGI (M19-MEL melanoma): > 100 µM
- TGI (RXF 393 renal): > 100 µM
- TGI (SK-MEL-5 melanoma): > 100 µM
- TGI (SNB-78 CNS): > 100 µM

SMILES: CC(C)(C)[C@H]1CO[C@]2(c3ccccc3)[C@@H]3C[C@@H]3C(=O)N12
- TGI (DLD-1 colon): > 100 µM
- TGI (DMS 114 small cell lung): > 100 µM
- TGI (DMS 273 small cell lung): > 100 µM
- TGI (KM20L2 colon): > 100 µM
- TGI (LXFL 529 NSCLC): > 100 µM
- TGI (M19-MEL melanoma): > 100 µM
- TGI (RXF 393 renal): > 100 µM
- TGI (SK-MEL-5 melanoma): > 100 µM
- TGI (XF 498 CNS): > 100 µM

SMILES: C/C(=N\Nc1nc2ccccc2[nH]1)c1cnccn1
- TGI (RXF 393 renal): 4.81 µM
- TGI (SK-MEL-5 melanoma): 13.2 µM

SMILES: CC/C(Cl)=N\OC(=O)Nc1ccc(OC)c(C)c1
- TGI (RXF 393 renal): 31 µM
- TGI (SK-MEL-5 melanoma): 39.1 µM

SMILES: CCOC(=O)NN(C(=O)OCC)C(=C(C1=CCCCC1)N1CCOCC1)N(NC(=O)OCC)C(=O)OCC
- TGI (RXF 393 renal): > 100 µM

SMILES: O=C(CSCC(=O)N/N=C\c1ccc(O)c(O)c1O)N/N=C\c1ccc(O)c(O)c1O
- TGI (RXF 393 renal): > 100 µM
- TGI (SK-MEL-5 melanoma): 36.3 µM

SMILES: CC1(C)Cc2c(oc3ncnc(N)c23)CS1
- TGI (DLD-1 colon): > 100 µM
- TGI (DMS 114 small cell lung): > 100 µM
- TGI (DMS 273 small cell lung): > 100 µM
- TGI (KM20L2 colon): > 100 µM
- TGI (LXFL 529 NSCLC): > 100 µM
- TGI (M19-MEL melanoma): > 100 µM
- TGI (RXF-631 renal): > 100 µM
- TGI (SK-MEL-5 melanoma): > 100 µM
- TGI (SNB-78 CNS): > 100 µM
- TGI (XF 498 CNS): > 100 µM

SMILES: O=S(=O)(O)c1ccc2c(N=Nc3ccc(S(=O)(=O)O)c4ccccc34)c(O)c(S(=O)(=O)O)cc2c1
- TGI (RXF 393 renal): > 100 µM
- TGI (SK-MEL-5 melanoma): > 100 µM

SMILES: c1ccc(Cn2c(-c3ccc(-c4ccccc4)cc3)cc3ccccc32)cc1
- TGI (SK-MEL-5 melanoma): > 100 µM

SMILES: COc1cc2cc3c4c(cc(OC)c(OC)c4c2cc1OC)CCN3C
- TGI (RXF 393 renal): 12.3 µM
- TGI (SK-MEL-5 melanoma): 16.6 µM

SMILES: O=C(COc1ccccc1)N(C(=O)N1CCN(c2ccccc2)CC1)S(=O)(=O)c1ccccc1
- TGI (SK-MEL-5 melanoma): > 100 µM

SMILES: CCNC1=C(NC(=O)c2ccccc2)C(=O)c2ccccc2C1=O
- TGI (RXF 393 renal): 74.1 µM

SMILES: CC(=O)Oc1c2ccsc2c(OC(C)=O)c2ccsc12
- TGI (RXF 393 renal): 0.501 µM
- TGI (SK-MEL-5 melanoma): 0.31 µM

SMILES: Cc1ccc(S(=O)(=O)N/N=C2\CCCCCCCCCCC2CN(C)C)cc1 (stereo not drawn)
- TGI (RXF 393 renal): 26.6 µM
- TGI (SK-MEL-5 melanoma): 24 µM

SMILES: Nc1ncc(C=O)c(NCC2(CO)CCC2)n1
- TGI (RXF 393 renal): > 100 µM
- TGI (SK-MEL-5 melanoma): 86.9 µM

SMILES: Nc1cccc(OCC2CCCN3CCCCC23)c1 (stereo not drawn)
- TGI (RXF 393 renal): 42.7 µM
- TGI (SK-MEL-5 melanoma): 33.8 µM

SMILES: COC(=O)c1c(O)ccc2c1c1c(n2Cc2ccccc2OC)C(=O)c2ccccc2C1=O
- TGI (RXF 393 renal): 30.7 µM
- TGI (SK-MEL-5 melanoma): 25.8 µM

SMILES: Nc1nc(Cl)c2ncn(Cc3cccc(CCl)c3)c2n1
- TGI (RXF 393 renal): 10.5 µM
- TGI (SK-MEL-5 melanoma): 15.9 µM

SMILES: CCOC(=O)C1C(c2ccc(OC)cc2)c2c([nH][nH]c2=O)CC1(C)O (stereo not drawn)
- TGI (SK-MEL-5 melanoma): > 100 µM

SMILES: CCOC(=O)CCC(NC(=O)c1ccc(Oc2nc3c(N)cc(C(F)(F)F)cc3nc2-c2ccccc2)cc1)C(=O)OCC (stereo not drawn)
- TGI (RXF 393 renal): 47.7 µM
- TGI (SK-MEL-5 melanoma): > 100 µM

SMILES: COC(=O)c1ccc(C)cc1CC1Cc2cccc(C)c2C1=O (stereo not drawn)
- TGI (RXF 393 renal): 30.2 µM
- TGI (SK-MEL-5 melanoma): 11.4 µM

SMILES: Cc1ccc(S(=O)(=O)N/N=C2\CCC3(O)CC2(C)CCC2C3CC2(C)C)cc1 (stereo not drawn)
- TGI (RXF 393 renal): > 100 µM
- TGI (SK-MEL-5 melanoma): > 100 µM

SMILES: Cc1c2ccncc2c(C)c2c1[nH]c1ccc(Oc3ccccc3)cc12
- TGI (DMS 114 small cell lung): 3.35 µM
- TGI (DMS 273 small cell lung): 3.07 µM
- TGI (HOP-18 NSCLC): 30.4 µM
- TGI (KM20L2 colon): 3.36 µM
- TGI (LXFL 529 NSCLC): 4.28 µM
- TGI (RXF 393 renal): 3.84 µM
- TGI (SK-MEL-5 melanoma): 9.46 µM
- TGI (SNB-78 CNS): 6.68 µM
- TGI (XF 498 CNS): 3.61 µM

SMILES: O=C1OCC(c2ccc(Cl)cc2)=C1Cl
- TGI (RXF 393 renal): 54.1 µM
- TGI (SK-MEL-5 melanoma): 31.5 µM

SMILES: CCC1(CC)N=C(C(F)(F)F)c2cc(C(=O)C(F)(F)F)c3ccccc3c2N1
- TGI (RXF 393 renal): 9.87 µM
- TGI (SK-MEL-5 melanoma): 11.4 µM

SMILES: COC(=O)c1c(C)c2c(c(C)c1C(=O)OC)-c1c(C)ccc3ccc(C)c-2c13
- TGI (RXF 393 renal): > 100 µM
- TGI (SK-MEL-5 melanoma): 95.8 µM

SMILES: COc1ccc(N=Nc2ccc3oc(=O)c(C(=O)Nc4ccccc4C)cc3c2)cc1
- TGI (RXF 393 renal): > 10 µM
- TGI (SK-MEL-5 melanoma): > 10 µM

SMILES: CC1(C)c2ccccc2N2O[C@@H]3C(=O)N(c4ccccc4)C(=O)[C@@H]3C21c1ccccc1 (stereo partly drawn)
- TGI (DLD-1 colon): > 100 µM
- TGI (DMS 114 small cell lung): > 100 µM
- TGI (DMS 273 small cell lung): > 100 µM
- TGI (LXFL 529 NSCLC): > 100 µM
- TGI (M19-MEL melanoma): > 100 µM
- TGI (RXF 393 renal): > 100 µM
- TGI (SK-MEL-5 melanoma): > 100 µM
- TGI (SNB-78 CNS): > 100 µM
- TGI (XF 498 CNS): > 100 µM

SMILES: CN(/N=C/c1ccccn1)C1=NCCCN1
- TGI (RXF 393 renal): > 100 µM
- TGI (SK-MEL-5 melanoma): > 100 µM

SMILES: COc1cc2c(oc(=O)c3cc4cc([Si](C)(C)C)oc4c(OC)c32)c2cccc(O)c12
- TGI (DLD-1 colon): > 100 µM
- TGI (DMS 114 small cell lung): > 100 µM
- TGI (DMS 273 small cell lung): > 100 µM
- TGI (HOP-18 NSCLC): > 100 µM
- TGI (KM20L2 colon): > 100 µM
- TGI (LXFL 529 NSCLC): > 100 µM
- TGI (M19-MEL melanoma): > 100 µM
- TGI (RXF 393 renal): > 100 µM
- TGI (SK-MEL-5 melanoma): > 100 µM
- TGI (SNB-78 CNS): > 100 µM
- TGI (XF 498 CNS): > 100 µM

SMILES: COc1ccc(CNc2nc(NCc3ccc(OC)cc3)nc(NC3CCCC3)n2)cc1
- TGI (RXF 393 renal): 3.61 µM
- TGI (SK-MEL-5 melanoma): 14 µM

SMILES: O=c1[nH][nH]c(=O)n1/N=C/c1ccccc1
- TGI (SK-MEL-5 melanoma): > 100 µM

SMILES: COc1ccc(CCNC(=O)c2ccccc2C2c3ccc(OCc4ccccc4)cc3Oc3cc(OCc4ccccc4)ccc32)cc1OC
- TGI (RXF 393 renal): > 100 µM
- TGI (SK-MEL-5 melanoma): > 100 µM

SMILES: CCOC(=O)c1c(N2CCCC2)[nH]c(=O)c(C(c2ccc(Cl)c([N+](=O)[O-])c2)c2c(O)c(C(=O)OCC)c(N3CCCC3)[nH]c2=O)c1O
- TGI (RXF 393 renal): 99.6 µM
- TGI (SK-MEL-5 melanoma): > 100 µM

SMILES: CCOC(=O)CSC1NC(C(=O)OC)CC1OC (stereo not drawn)
- TGI (RXF 393 renal): > 100 µM
- TGI (SK-MEL-5 melanoma): > 100 µM

SMILES: CC(C)OC(=O)[C@H]1ON2O[C@H](O[C@@H]3CCCC[C@H]3c3ccccc3)C([Si](C)(C)c3ccccc3)[C@H]3OC(=O)[C@@H]1C32 (stereo partly drawn)
- TGI (RXF 393 renal): > 100 µM
- TGI (SK-MEL-5 melanoma): > 100 µM

SMILES: c1ccc(-c2c(-c3cccs3)[nH]c(-c3cccs3)c2-c2ccccn2)nc1
- TGI (RXF 393 renal): 53.5 µM
- TGI (SK-MEL-5 melanoma): 26.6 µM

SMILES: c1ccc2c(c1)c1c3c(c4c(n32)=NCCN4)CCC1
- TGI (RXF 393 renal): 60.8 µM
- TGI (SK-MEL-5 melanoma): > 100 µM

SMILES: CCS(=O)c1c2cc(OC)ccc2nc2ccc(OC)cc12 (stereo not drawn)
- TGI (RXF 393 renal): 17.2 µM
- TGI (SK-MEL-5 melanoma): 30.3 µM

SMILES: Cc1cn(Cc2cccc(C3=NCCCN3)c2)c(=O)n(Cc2cccc(C3=NCCCN3)c2)c1=O
- TGI (SK-MEL-5 melanoma): > 100 µM

SMILES: N#Cc1ccc(Oc2ccccc2)cc1C#N
- TGI (DLD-1 colon): > 100 µM
- TGI (DMS 114 small cell lung): 59.1 µM
- TGI (DMS 273 small cell lung): 34.5 µM
- TGI (HOP-18 NSCLC): > 100 µM
- TGI (KM20L2 colon): > 100 µM
- TGI (LXFL 529 NSCLC): > 100 µM
- TGI (M19-MEL melanoma): > 100 µM
- TGI (RXF 393 renal): > 100 µM
- TGI (SK-MEL-5 melanoma): > 100 µM
- TGI (SNB-78 CNS): > 100 µM
- TGI (XF 498 CNS): > 100 µM

SMILES: CC(=O)C1C(=O)C(=O)N(c2ccc([N+](=O)[O-])cc2)C1=O (stereo not drawn)
- TGI (RXF 393 renal): > 100 µM
- TGI (SK-MEL-5 melanoma): > 100 µM

SMILES: COc1ccc(-c2csc(Cc3nc4c(Br)cc(Br)cc4c(=O)n3-c3ccc(OC)cc3)n2)cc1
- TGI (RXF 393 renal): > 100 µM
- TGI (SK-MEL-5 melanoma): 89.3 µM

SMILES: O=C1c2ccccc2C(=O)c2c(NC(=O)C3CC3)ccc(NC(=O)C3CC3)c21
- TGI (SK-MEL-5 melanoma): > 100 µM

SMILES: CCC/C(Cl)=N/OC(NC(=O)OCC)(C(F)(F)F)C(F)(F)F
- TGI (RXF 393 renal): 33.6 µM
- TGI (SK-MEL-5 melanoma): 71.4 µM

SMILES: CN(C)CCCNC(=O)c1cc(NS(=O)(=O)c2ccc3c(c2)C(=O)c2ccccc2C3=O)cn1C
- TGI (RXF 393 renal): 57.4 µM
- TGI (SK-MEL-5 melanoma): 37.4 µM
